Where two headings read alike, the source gives them in different places. *1 amine or outer side, *2 acyl side, *3 side chain or, on linkers, in order; H or OH if unused. Where a SMILES comes first, the peptide text is derived from it. Side-chain parts run from the residue outwards. [ ]: non-standard residue; d: D form. The star is where a group is joined. Isobutyryl(2-(3-CN-5-F-Ph)) = CC(C)(C(=O)*)c1cc(F)cc(C#N)c1; C20 diacid = O=C(O)CCCCCCCCCCCCCCCCCCC(=O)*; Phenylacetyl(3-Cl) = O=C(Cc1cccc(Cl)c1)*; γGlu = O=C(O)[C@H](CCC(=O)[*:2])N[*:1]; X34 = CCC(CC)(C(=O)*)c1ccc(Cl)c(Cl)c1; Phe(2-F) = N[C@@H](Cc1ccccc1F)C(=O)O; X37 = CC(C)(C(=O)*)c1cc(F)ccc1F; AEEA = NCCOCCOCC(=O)O; Aib = CC(C)(N)C(=O)O; CO = O=C([*:1])[*:2]; X63 = Fc1ccc(N*)cc1F; GABA = NCCCC(=O)O; βAla = NCCC(=O)O Where only a bound is given, the exact number is not on record here.

By EC50 is commonly meant the concentration giving half of the maximal effect. A word on the Emax: it is the size of the effect at its maximum, as opposed to the concentration needed.

What all share (type): cell-based
Experiment [1] deals with T1, GIP receptor (Homo sapiens, UniProt P48546).
T1 sequence (P48546 22-466): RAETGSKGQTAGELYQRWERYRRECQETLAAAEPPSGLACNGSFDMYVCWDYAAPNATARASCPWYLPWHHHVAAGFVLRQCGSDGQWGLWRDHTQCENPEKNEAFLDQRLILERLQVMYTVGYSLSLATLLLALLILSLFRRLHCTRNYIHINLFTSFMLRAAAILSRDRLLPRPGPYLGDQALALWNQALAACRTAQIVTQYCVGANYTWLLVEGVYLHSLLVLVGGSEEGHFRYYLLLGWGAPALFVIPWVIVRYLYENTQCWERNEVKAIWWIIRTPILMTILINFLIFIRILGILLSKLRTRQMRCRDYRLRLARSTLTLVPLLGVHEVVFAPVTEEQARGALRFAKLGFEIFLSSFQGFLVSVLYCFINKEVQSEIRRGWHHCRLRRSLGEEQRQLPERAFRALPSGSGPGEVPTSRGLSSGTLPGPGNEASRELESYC
Kind of experiment: PathHunter β-arrestin assay, GIP receptor. Also noted: host or cells: PathHunter CHO-K1 GIPR β-Arrestin Cell Line.

Experiment [2] deals with T2, GLP-1 receptor (Homo sapiens, UniProt P43220). The experiment in a line: HitHunter cAMP assay, GLP-1 receptor. As to conditions: for Emax: read-out: Emax GLP-1R. In general terms: cAMP levels reflect the balance of adenylyl cyclase and phosphodiesterase activity.
T2 sequence (P43220 24-463): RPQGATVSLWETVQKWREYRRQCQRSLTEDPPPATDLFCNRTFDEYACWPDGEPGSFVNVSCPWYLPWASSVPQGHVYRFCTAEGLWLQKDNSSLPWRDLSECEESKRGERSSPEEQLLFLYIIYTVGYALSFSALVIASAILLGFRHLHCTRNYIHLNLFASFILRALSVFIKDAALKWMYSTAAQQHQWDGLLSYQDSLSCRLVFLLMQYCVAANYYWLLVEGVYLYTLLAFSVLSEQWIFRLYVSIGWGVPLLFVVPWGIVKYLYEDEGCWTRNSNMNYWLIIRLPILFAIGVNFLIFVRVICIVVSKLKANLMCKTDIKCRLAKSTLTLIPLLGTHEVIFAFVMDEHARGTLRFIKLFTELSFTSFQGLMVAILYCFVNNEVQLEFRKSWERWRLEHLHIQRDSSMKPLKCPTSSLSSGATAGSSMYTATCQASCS
The target in experiment [3] is T1, GIP receptor. Kind of experiment: HitHunter cAMP assay, GIP receptor. As to conditions: for Emax: read-out: Emax GIP-1R.
The target in experiment [4] is T2, GLP-1 receptor. Kind of experiment: PathHunter β-arrestin assay, GLP-1 receptor. Set-up: host or cells: PathHunter CHO-K1 GLP1R β-Arrestin Cell Line.
Setting [5] is: β-arrestin-2 recruitment, PathHunter CHO-K1 GIPR β-Arrestin Cell Line, 90 min at 37° C., normalized to GIP, read-out: GIPR β Arrestin EC50.
[6] abbreviates: CHO cells stably expressing human GLP-1 receptor, cAMP accumulation, 30 min, read-out: EC50 GLP-1R.
Setting [7] is: CHO cells, cAMP, normalized to maximum signal from GLP-1 (high) and DMSO (low).
[8] abbreviates: CHO cells stably expressing GIP receptor, cAMP accumulation, 30 min, read-out: EC50 GIP-1R.
[9] abbreviates: CHO cells, cAMP, normalized to maximum signal from GIP (high) and DMSO (low).
Setting [10] is: β-arrestin-2 recruitment, PathHunter CHO-K1 GLP1R β-Arrestin Cell Line, 90 min at 37° C., normalized to GLP-1, read-out: GLP-1R β Arrestin EC50.

In the case of `CC[C@H](C)[C@H](NC(=O)[C@H](CC(C)C)NC(=O)[C@H](Cc1c[nH]c2ccccc12)NC(=O)[C@H](CCC(N)=O)NC(=O)[C@@H](NC(=O)[C@H](Cc1ccccc1)NC(=O)[C@H](C)NC(=O)[C@H](CCCCNC(=O)COCCOCCNC(=O)COCCOCCNC(=O)CC[C@H](NC(=O)CCCCCCCCCCCCCCCCCCC(=O)O)C(=O)O)NC(=O)[C@H](CCC(N)=O)NC(=O)[C@H](C)NC(=O)[C@@H](NC(=O)[C@H](CCCCN)NC(=O)[C@H](CC(=O)O)NC(=O)[C@H](CC(C)C)NC(=O)C(C)(C)NC(=O)[C@@H](NC(=O)[C@H](CO)NC(=O)[C@H](Cc1ccc(O)cc1)NC(=O)[C@H](CC(=O)O)NC(=O)[C@H](CO)NC(=O)[C@@H](NC(=O)[C@H](Cc1ccccc1)NC(=O)[C@@H](NC(=O)CNC(=O)[C@H](CCC(=O)O)NC(=O)CCCNC(=O)CNC(=O)Cc1cccc(Cl)c1)[C@@H](C)O)[C@@H](C)O)[C@@H](C)CC)[C@@H](C)CC)C(C)C)C(=O)N[C@@H](C)C(=O)NCC(=O)NCC(=O)N1CCC[C@H]1C(=O)N[C@@H](CO)C(=O)N[C@@H](CO)C(=O)NCC(=O)N[C@@H](C)C(=O)N1CCC[C@H]1C(=O)N1CCC[C@H]1C(=O)N1CCC[C@H]1C(=O)N[C@@H](CO)C(N)=O` [Compound 221] ({Phenylacetyl(3-Cl)}-G[GABA]EGTFTSDYSI[Aib]LDKIAQK([AEEA-AEEA-γGlu-C20 diacid])AFVQWLIAGGPSSGAPPPS-NH2), the EC50 in experiment [1] is above 1000 nM; in experiment [2] it was 10 to 100 nM; in experiment [3] it was 10 to 100 nM; in experiment [4], above 1000 nM. In addition, the Emax in experiment [2] (CHO) and in experiment [3] (CHO) was 95% throughout.
For the compound `CC[C@H](C)[C@H](NC(=O)[C@H](CC(C)C)NC(=O)[C@H](Cc1c[nH]c2ccccc12)NC(=O)[C@H](CCC(N)=O)NC(=O)[C@@H](NC(=O)[C@H](Cc1ccccc1)NC(=O)[C@H](C)NC(=O)[C@H](CCCCNC(=O)COCCOCCNC(=O)COCCOCCNC(=O)CC[C@H](NC(=O)CCCCCCCCCCCCCCCCCCC(=O)O)C(=O)O)NC(=O)[C@H](CCC(N)=O)NC(=O)[C@H](C)NC(=O)[C@@H](NC(=O)[C@H](CCCCN)NC(=O)[C@H](CC(=O)O)NC(=O)[C@H](CC(C)C)NC(=O)C(C)(C)NC(=O)[C@@H](NC(=O)[C@H](CO)NC(=O)[C@H](Cc1ccc(O)cc1)NC(=O)[C@H](CC(=O)O)NC(=O)[C@H](CO)NC(=O)[C@@H](NC(=O)[C@H](Cc1ccccc1)NC(=O)[C@@H](NC(=O)CNC(=O)[C@H](CCC(=O)O)NC(=O)CCCNC(=O)CNC(=O)Nc1ccc(F)c(F)c1)[C@@H](C)O)[C@@H](C)O)[C@@H](C)CC)[C@@H](C)CC)C(C)C)C(=O)N[C@@H](C)C(=O)NCC(=O)NCC(=O)N1CCC[C@H]1C(=O)N[C@@H](CO)C(=O)N[C@@H](CO)C(=O)NCC(=O)N[C@@H](C)C(=O)N1CCC[C@H]1C(=O)N1CCC[C@H]1C(=O)N1CCC[C@H]1C(=O)N[C@@H](CO)C(N)=O` [Compound 264] ({X63-CO}-G[GABA]EGTFTSDYSI[Aib]LDKIAQK([AEEA-AEEA-γGlu-C20 diacid])AFVQWLIAGGPSSGAPPPS-NH2), the EC50 in experiment [1] (setting [5]) was below 1000 nM; in experiment [2] (setting [6]), 1 to 10 nM; in experiment [3] (setting [8]), 1 to 10 nM; in experiment [4] (setting [10]), above 1000 nM. In addition, the Emax stood at 97% in experiment [2] (setting [7]) and 106% in experiment [3] (setting [9]).
For the compound `CC[C@H](C)[C@H](NC(=O)[C@H](CC(C)C)NC(=O)[C@H](Cc1c[nH]c2ccccc12)NC(=O)[C@H](CCC(N)=O)NC(=O)[C@@H](NC(=O)[C@H](Cc1ccccc1)NC(=O)[C@H](C)NC(=O)[C@H](CCCCNC(=O)COCCOCCNC(=O)COCCOCCNC(=O)CC[C@H](NC(=O)CCCCCCCCCCCCCCCCCCC(=O)O)C(=O)O)NC(=O)[C@H](CCC(N)=O)NC(=O)[C@H](C)NC(=O)[C@@H](NC(=O)[C@H](CCCCN)NC(=O)[C@H](CC(=O)O)NC(=O)[C@H](CC(C)C)NC(=O)C(C)(C)NC(=O)[C@@H](NC(=O)[C@H](CO)NC(=O)[C@H](Cc1ccc(O)cc1)NC(=O)[C@H](CC(=O)O)NC(=O)[C@H](CO)NC(=O)[C@@H](NC(=O)[C@H](Cc1ccccc1)NC(=O)[C@@H](NC(=O)CNC(=O)[C@H](CCC(=O)O)NC(=O)CCNC(=O)C(C)(C)c1cc(F)ccc1F)[C@@H](C)O)[C@@H](C)O)[C@@H](C)CC)[C@@H](C)CC)C(C)C)C(=O)N[C@@H](C)C(=O)NCC(=O)NCC(=O)N1CCC[C@H]1C(=O)N[C@@H](CO)C(=O)N[C@@H](CO)C(=O)NCC(=O)N[C@@H](C)C(=O)N1CCC[C@H]1C(=O)N1CCC[C@H]1C(=O)N1CCC[C@H]1C(=O)N[C@@H](CO)C(N)=O` [Compound 146] ({X37-βAla}-EGTFTSDYSI[Aib]LDKIAQK([AEEA-AEEA-γGlu-C20 diacid])AFVQWLIAGGPSSGAPPPS-NH2), the EC50 in experiment [1] (setting [5]) was below 1000 nM; in experiment [2] (setting [6]) it was 0.1 to 1 nM; in experiment [3] (setting [8]), 1 to 10 nM; in experiment [4] (setting [10]) it was above 1000 nM. Besides, the Emax in experiment [2] (setting [7]) was determined as 102%; in experiment [3] (setting [9]), 104%.
With `CC[C@H](C)[C@H](NC(=O)[C@H](CC(C)C)NC(=O)[C@H](Cc1c[nH]c2ccccc12)NC(=O)[C@H](CCC(N)=O)NC(=O)[C@@H](NC(=O)[C@H](Cc1ccccc1)NC(=O)[C@H](C)NC(=O)[C@H](CCCCNC(=O)COCCOCCNC(=O)COCCOCCNC(=O)CC[C@H](NC(=O)CCCCCCCCCCCCCCCCCCC(=O)O)C(=O)O)NC(=O)[C@H](CCC(N)=O)NC(=O)[C@H](C)NC(=O)[C@@H](NC(=O)[C@H](CCCCN)NC(=O)[C@H](CC(=O)O)NC(=O)[C@H](CC(C)C)NC(=O)C(C)(C)NC(=O)[C@@H](NC(=O)[C@H](CO)NC(=O)[C@H](Cc1ccc(O)cc1)NC(=O)[C@H](CC(=O)O)NC(=O)[C@H](CO)NC(=O)[C@@H](NC(=O)[C@H](Cc1ccccc1F)NC(=O)[C@@H](NC(=O)CNC(=O)[C@H](CCC(=O)O)NC(=O)CCNC(=O)C(C)(C)c1cc(F)cc(C#N)c1)[C@@H](C)O)[C@@H](C)O)[C@@H](C)CC)[C@@H](C)CC)C(C)C)C(=O)N[C@@H](C)C(=O)NCC(=O)NCC(=O)N1CCC[C@H]1C(=O)N[C@@H](CO)C(=O)N[C@@H](CO)C(=O)NCC(=O)N[C@@H](C)C(=O)N1CCC[C@H]1C(=O)N1CCC[C@H]1C(=O)N1CCC[C@H]1C(=O)N[C@@H](CO)C(N)=O` [Compound 233] ({Isobutyryl(2-(3-CN-5-F-Ph))-βAla}-EGT[Phe(2-F)]TSDYSI[Aib]LDKIAQK([AEEA-AEEA-γGlu-C20 diacid])AFVQWLIAGGPSSGAPPPS-NH2), the EC50 in experiment [1] (setting [5]) is below 1000 nM; in experiment [2] (setting [6]), 0.1 to 1 nM; in experiment [3] (setting [8]), 0.1 to 1 nM; in experiment [4] (setting [10]) it was above 1000 nM. The figures for the Emax in experiment [2] (setting [7]) and in experiment [3] (setting [9]) were 121% and 109%, respectively.
In the case of `CC[C@H](C)[C@H](NC(=O)[C@H](CC(C)C)NC(=O)[C@H](Cc1c[nH]c2ccccc12)NC(=O)[C@H](CCC(N)=O)NC(=O)[C@@H](NC(=O)[C@H](Cc1ccccc1)NC(=O)[C@H](C)NC(=O)[C@H](CCCCNC(=O)COCCOCCNC(=O)COCCOCCNC(=O)CC[C@H](NC(=O)CCCCCCCCCCCCCCCCCCC(=O)O)C(=O)O)NC(=O)[C@H](CCC(N)=O)NC(=O)[C@H](C)NC(=O)[C@@H](NC(=O)[C@H](CCCCN)NC(=O)[C@H](CC(=O)O)NC(=O)[C@H](CC(C)C)NC(=O)C(C)(C)NC(=O)[C@@H](NC(=O)[C@H](CO)NC(=O)[C@H](Cc1ccc(O)cc1)NC(=O)[C@H](CC(=O)O)NC(=O)[C@H](CO)NC(=O)[C@@H](NC(=O)[C@H](Cc1ccccc1)NC(=O)[C@@H](NC(=O)CNC(=O)[C@H](CCC(=O)O)NC(=O)CCNC(=O)C(CC)(CC)c1ccc(Cl)c(Cl)c1)[C@@H](C)O)[C@@H](C)O)[C@@H](C)CC)[C@@H](C)CC)C(C)C)C(=O)N[C@@H](C)C(=O)NCC(=O)NCC(=O)N1CCC[C@H]1C(=O)N[C@@H](CO)C(=O)N[C@@H](CO)C(=O)NCC(=O)N[C@@H](C)C(=O)N1CCC[C@H]1C(=O)N1CCC[C@H]1C(=O)N1CCC[C@H]1C(=O)N[C@@H](CO)C(N)=O` [Compound 175] ({X34-βAla}-EGTFTSDYSI[Aib]LDKIAQK([AEEA-AEEA-γGlu-C20 diacid])AFVQWLIAGGPSSGAPPPS-NH2), the EC50 in experiment [1] (setting [5]) is below 1000 nM; in experiment [2] (setting [6]), 1 to 10 nM; in experiment [3] (setting [8]), 1 to 10 nM; in experiment [4] (setting [10]) it was above 1000 nM. Besides, the results for the Emax in experiment [2] (setting [7]) and in experiment [3] (setting [9]) were 94% and 110%, respectively.

Values taken from patent publication US12281149B2, “Modulators of G-protein coupled receptors” (priority 2021, dated 2025).
